In PMC6093232, “PROMIS, global analysis of PROtein–metabolite interactions using size separation in Arabidopsis thaliana” (The Journal of Biological Chemistry, 2018):
Read-outs that look alike come from different tables or passages of the source. Where a SMILES comes first, the peptide text is derived from it.

Tests used:
GAPCP1 [1] = biological target: T1, GAPCP1 (Arabidopsis thaliana, UniProt Q9SAJ6); test: biochemical; set-up: nanoDSF thermal shift, intrinsic fluorescence ratio 350/330 nm, Prometheus NT.48; details: 1x PBS
T1 construct: N-terminal His6 (pDEST17), cloned from Arabidopsis cDNA, expressed in E. coli, SEC purified
Procedure: (§1) Protein thermal stability measurements GAPC1/2, GAPCP1, and GAPCP2 proteins were obtained as described above, and the human GAPDH recombinant protein was obtained from a commercial supplier (Sigma) and stored in 10 mM Tris buffer (pH 7.5, 0.5 M NaCl). Tyr–Asp (25 μM), 3PGA (250 μM), and other dipeptides (25 μM) were prepared in 1× PBS buffer for the measurements using GAPC1/2 protein. For GAPCP1 Tyr–Asp (25 μM), 3PGA (250 μM) and other dipeptides (25 μM) were prepared in 1× PBS buffer, whereas for GAPCP2 Tyr–Asp (50 μM), 3PGA (250 μM) and other dipeptides (50 μM) were prepared in 1× PBS buffer. In addition, for the human GAPDH Tyr–Asp (500 μM), 3PGA (500 μM) and other dipeptides (500 μM) were prepared in Tris buffer (10 mM Tris-HCl, pH 7.5, 0.5 M NaCl). In accordance, GAPDH (1 μM) and GAPCs (0.2–0.25 mg/ml) were diluted using Tris or PBS buffer, respectively. Capillaries were loaded into the Prometheus NT.48 (Nanotemper). Unfolding was detected during heating in a linear thermal ramp (2 °C min^−1, 20–90 °C) with an excitation power of 60–100%. Temperature-dependent protein unfolding was determined from changes in tryptophan and tyrosine fluorescence at emission wavelengths of 350 and 330 nm. Melting temperatures were determined by detecting the maximum of the first derivative of the fluorescence ratios (F350 nm/F330 nm) as described previously ([43]). To validate the binding, we first tested a commercially available human homolog of GAPC1, GAPDH. Subsequently, plant GAPC1/2, GAPCP1, and GAPCP2 were overexpressed and purified from E. coli. Binding was probed using nano-DSF technology from Nanotemper (Prometheus NT.48; see under “Experimental procedures”). Prometheus NT.48 traces protein thermal stability by recording changes in the tryptophan residues during protein unfolding in an increasing temperature gradient. The melting temperature (Tm) of GAPDH was calculated as 60 °C, GAPC1/2 to 54 °C, GAPCP1 to 55 °C, and GAPCP2 to 55 °C (Fig. 7, C–F; Tables S5 and S6). […] Analogous results were obtained for Tyr–Asp. More specifically, 500 μM Tyr–Asp stabilized GAPDH by ∼1.1 °C, whereas 25–50 μM Tyr–Asp destabilized GAPC1/2, GAPCP1, and GAPCP2 by ∼1, 2, and 1.5 °C, respectively (Fig. 7, C–F; Tables S5 and S6). The obtained results validate the interaction between Tyr–Asp and plant glyceraldehyde-3-P dehydrogenases. The interaction is conserved in the human enzyme.

GAPCP2 [2] = biological target: T2, GAPCP2 (Arabidopsis thaliana, UniProt Q5E924); test: biochemical; set-up: nanoDSF thermal shift, intrinsic fluorescence ratio 350/330 nm, Prometheus NT.48; details: 1x PBS
T2 construct: N-terminal His6 (pDEST17), cloned from Arabidopsis cDNA, expressed in E. coli, SEC purified
Procedure: as §1

GAPDH [3] = biological target: T3, GAPDH (Homo sapiens, UniProt P04406); test: biochemical; set-up: nanoDSF thermal shift, intrinsic fluorescence ratio 350/330 nm, Prometheus NT.48; details: 10 mM Tris pH 7.5, 0.5 M NaCl
T3 construct: commercial human recombinant protein (Sigma)
Procedure: as §1

GAPDH [4] = biological target: T3, GAPDH; test: nanoDSF thermal shift; type: binding; details: 500 μM ligand; 1 μM protein; 10 mM Tris-HCl pH 7.5, 0.5 M NaCl
MTI = biological target: T4, MTI (Arabidopsis thaliana, UniProt Q9ZUG4); test: microscale thermophoresis; type: binding
T4 construct: gene At2g05830; N-terminal His6 (pET300), E. coli BL21 Star (DE3), Ni-NTA purified; RED-Tris-NTA labelled
T4 sequence (Q9ZUG4 1-374): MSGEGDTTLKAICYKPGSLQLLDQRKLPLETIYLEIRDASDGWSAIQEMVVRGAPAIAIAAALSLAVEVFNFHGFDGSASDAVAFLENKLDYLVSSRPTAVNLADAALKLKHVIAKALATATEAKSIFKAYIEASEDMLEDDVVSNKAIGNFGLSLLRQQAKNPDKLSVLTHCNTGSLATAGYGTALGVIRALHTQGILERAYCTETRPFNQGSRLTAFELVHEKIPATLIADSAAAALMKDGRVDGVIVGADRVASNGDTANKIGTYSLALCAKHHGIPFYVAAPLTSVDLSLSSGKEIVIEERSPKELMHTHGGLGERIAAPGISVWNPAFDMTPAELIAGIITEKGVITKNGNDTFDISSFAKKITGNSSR

GAPCP1 [5] = biological target: T1, GAPCP1; test: nanoDSF thermal shift; type: binding; details: 25 μM ligand; 0.2-0.25 mg/ml protein; PBS
GAPCP2 [6] = biological target: T2, GAPCP2; test: nanoDSF thermal shift; type: binding; details: 50 μM ligand; 0.2-0.25 mg/ml protein; PBS
GAPCP1 [7] = biological target: T1, GAPCP1; test: biochemical; set-up: nanoDSF thermal shift; Tm from ratio of tryptophan fluorescence at 350 and 330 nm
Procedure: (§2) GAPC1/2, GAPCP1, and GAPCP2 proteins were obtained as described above, and the human GAPDH recombinant protein was obtained from a commercial supplier (Sigma) and stored in 10 mM Tris buffer (pH 7.5, 0.5 M NaCl). Tyr–Asp (25 μM), 3PGA (250 μM), and other dipeptides (25 μM) were prepared in 1× PBS buffer for the measurements using GAPC1/2 protein. For GAPCP1 Tyr–Asp (25 μM), 3PGA (250 μM) and other dipeptides (25 μM) were prepared in 1× PBS buffer, whereas for GAPCP2 Tyr–Asp (50 μM), 3PGA (250 μM) and other dipeptides (50 μM) were prepared in 1× PBS buffer. In addition, for the human GAPDH Tyr–Asp (500 μM), 3PGA (500 μM) and other dipeptides (500 μM) were prepared in Tris buffer (10 mM Tris-HCl, pH 7.5, 0.5 M NaCl). […] Unfolding was detected during heating in a linear thermal ramp (2 °C min^−1, 20–90 °C) with an excitation power of 60–100%. Temperature-dependent protein unfolding was determined from changes in tryptophan and tyrosine fluorescence at emission wavelengths of 350 and 330 nm. Melting temperatures were determined by detecting the maximum of the first derivative of the fluorescence ratios (F350 nm/F330 nm) as described previously ([43]). […] The melting temperature (Tm) of GAPDH was calculated as 60 °C, GAPC1/2 to 54 °C, GAPCP1 to 55 °C, and GAPCP2 to 55 °C (Fig. 7, C–F; Tables S5 and S6). […]

GAPCP2 [8] = biological target: T2, GAPCP2; test: biochemical; set-up: nanoDSF thermal shift; Tm from ratio of tryptophan fluorescence at 350 and 330 nm
Procedure: as §2

KPHMT1 = biological target: T5, KPHMT1 (Arabidopsis thaliana, UniProt O82357); test: microscale thermophoresis; type: binding
T5 construct: N-terminal 144 bp of CDS (mitochondrial signal peptide, 48 residues) deleted; N-terminal His6 (pET300), E. coli BL21 Star (DE3); purified per Results, bacterial lysate used directly per Methods; RED-Tris-NTA labelled
T5 sequence (O82357 49-347): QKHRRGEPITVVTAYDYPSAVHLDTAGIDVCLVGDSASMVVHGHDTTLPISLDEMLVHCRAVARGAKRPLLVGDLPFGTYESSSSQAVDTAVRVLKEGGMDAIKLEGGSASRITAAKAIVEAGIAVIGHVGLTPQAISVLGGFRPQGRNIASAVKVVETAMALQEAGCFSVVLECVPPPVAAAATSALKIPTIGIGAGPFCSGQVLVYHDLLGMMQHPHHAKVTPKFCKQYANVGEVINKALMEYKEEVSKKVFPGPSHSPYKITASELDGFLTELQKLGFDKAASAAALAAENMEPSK

T3 sequence (P04406 2-335): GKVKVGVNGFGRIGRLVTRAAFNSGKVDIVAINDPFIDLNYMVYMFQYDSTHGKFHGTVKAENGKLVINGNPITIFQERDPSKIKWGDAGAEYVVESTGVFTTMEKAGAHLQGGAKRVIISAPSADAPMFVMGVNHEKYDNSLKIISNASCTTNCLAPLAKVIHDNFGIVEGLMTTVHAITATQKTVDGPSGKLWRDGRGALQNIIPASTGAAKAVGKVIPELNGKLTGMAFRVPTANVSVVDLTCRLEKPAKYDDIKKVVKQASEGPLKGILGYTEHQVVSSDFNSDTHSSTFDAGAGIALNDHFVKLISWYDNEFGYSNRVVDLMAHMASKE
T2 sequence (Q5E924 67-420): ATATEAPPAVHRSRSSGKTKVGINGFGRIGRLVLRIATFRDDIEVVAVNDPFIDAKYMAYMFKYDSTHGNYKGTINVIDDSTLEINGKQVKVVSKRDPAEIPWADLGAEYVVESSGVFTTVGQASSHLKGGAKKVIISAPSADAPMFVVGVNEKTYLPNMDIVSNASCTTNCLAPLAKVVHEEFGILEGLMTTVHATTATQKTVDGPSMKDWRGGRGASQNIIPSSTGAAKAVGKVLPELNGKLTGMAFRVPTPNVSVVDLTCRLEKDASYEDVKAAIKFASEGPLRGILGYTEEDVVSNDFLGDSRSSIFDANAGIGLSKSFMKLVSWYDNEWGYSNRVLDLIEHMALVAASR
T1 sequence (Q9SAJ6 whole entry): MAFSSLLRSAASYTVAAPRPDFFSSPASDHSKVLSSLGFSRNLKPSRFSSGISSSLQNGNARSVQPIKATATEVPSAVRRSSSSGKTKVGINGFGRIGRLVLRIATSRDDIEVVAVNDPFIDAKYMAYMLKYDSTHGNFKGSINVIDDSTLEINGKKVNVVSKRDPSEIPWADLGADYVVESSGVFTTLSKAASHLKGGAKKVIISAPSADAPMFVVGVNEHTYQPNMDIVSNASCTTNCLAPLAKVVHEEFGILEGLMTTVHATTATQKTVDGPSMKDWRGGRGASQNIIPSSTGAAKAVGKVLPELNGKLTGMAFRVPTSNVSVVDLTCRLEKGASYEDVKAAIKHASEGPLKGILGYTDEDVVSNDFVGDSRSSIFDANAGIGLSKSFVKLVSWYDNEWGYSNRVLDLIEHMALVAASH

Structure (SMILES)	ΔTm at 25 µM (GAPCP1 [1])	ΔTm at 50 µM (GAPCP2 [2])	ΔTm at 500 µM (GAPDH [3])	also measured
N[C@@H](Cc1c[nH]cn1)C(=O)N[C@@H](Cc1ccc(O)cc1)C(=O)O [His–Tyr] (H-His-Tyr-OH)	-0.02 °C	0.22 °C	-1.2 °C	dTm (GAPDH [4]): Tm of the human GAPDH was affected by the presence of two other Tyr-containing dipeptides
CC(C)C[C@H](N)C(=O)N[C@@H](Cc1ccccc1)C(=O)O [LeuPhe] (H-Leu-Phe-OH)	-0.33 °C	0.2 °C	0.2 °C	–
CSC[C@H]1O[C@@H](n2cnc3c(N)ncnc32)[C@H](O)[C@@H]1O [MTA]	–	–	–	Kd (MTI): 4 µM
O=C(O)CC[C@H](NC(=O)[C@@H]1CCCN1)C(=O)O [ProGlu] (H-Pro-Glu-OH)	-0.1 °C	-0.12 °C	0.1 °C	–
N[C@@H](Cc1ccc(O)cc1)C(=O)N[C@@H](CC(=O)O)C(=O)O [Tyr–Asp] (H-Tyr-Asp-OH)	–	–	–	dTm (destabilized) (GAPCP1 [5]): ~ 2 °C; dTm (destabilized) (GAPCP2 [6]): ~ 1.5 °C; ΔTm at 25 µM (GAPCP1 [1]; experiment 1): -1.56 °C; ΔTm at 25 µM (GAPCP1 [1]; experiment 2): -2.09 °C; ΔTm at 25 µM (GAPCP1 [1]; experiment 3): -2.2 °C; ΔTm at 25 µM (GAPCP1 [1]; experiment 4): -2.06 °C; ΔTm at 50 µM (GAPCP2 [2]; experiment 1): -1.6 °C; ΔTm at 50 µM (GAPCP2 [2]; experiment 2): -1.58 °C; ΔTm at 50 µM (GAPCP2 [2]; experiment 3): -1.55 °C; ΔTm at 50 µM (GAPCP2 [2]; experiment 4): -1.23 °C; ΔTm at 500 µM (GAPDH [3]; experiment 1): 2.2 °C; ΔTm at 500 µM (GAPDH [3]; experiment 2): 1.31 °C; ΔTm at 500 µM (GAPDH [3]; experiment 4): 1.06 °C; ΔTm at 25 µM (GAPCP1 [7]): -2.06 °C; ΔTm at 50 µM (GAPCP2 [8]): -1.23 °C
CC(C)(CO)[C@@H](O)C(=O)NCCC(=O)O [pantothenate]	–	–	–	Kd (KPHMT1): 500 µM

Further lines, with some results ahead:

ΔTm at 25 µM (GAPCP1 [1])	ΔTm at 50 µM (GAPCP2 [2])	ΔTm at 500 µM (GAPDH [3])	Structure (SMILES)	also measured
-0.11 °C	0.55 °C	0.1 °C	NCC(=O)N1CCC[C@H]1C(=O)O [GlyPro] (H-Gly-Pro-OH)	–
-0.01 °C	0.66 °C	0.2 °C	CSCC[C@H](NC(=O)[C@@H](N)[C@@H](C)O)C(=O)O [ThrMet] (H-Thr-Met-OH)	–
0.15 °C	1.67 °C	2.2 °C	CC(C)C[C@H](NC(=O)[C@@H](N)Cc1ccc(O)cc1)C(=O)O [TyrLeu] (H-Tyr-Leu-OH)	–
